Experimental data as given in EPA's ToxRefDB 2.

Key:
dog [1] = conditions: Sub-acute repeat dose toxicity, beagle, Oral, Gavage/Intubation, dose end: 14 day, group: systemic
rat [2] = conditions: Sub-acute repeat dose toxicity; sprague dawley; Oral; Gavage/Intubation; dose end: 14 day; group: systemic; systemic / clinical chemistry / [other] / [other] + systemic / clinical chemistry / 5' nucleotidase / 5' nucleotidase + systemic / clinical …
mouse [3] = conditions: Combined chronic toxicity/carcinogenicity; b6c3f1; Oral; Feed; dose end: 104 week; group: systemic; systemic / in life observation / body weight / body weight + systemic / in life observation / body weight / body weight gain + systemic / …
rat [4] = conditions: Subchronic oral toxicity in rodents, fischer, Feed, dose end: 13 week
rat [5] = conditions: Prenatal developmental toxicity study, sprague dawley, Oral, Gavage/Intubation, dose end: 17 GD
rat [6] = conditions: Combined chronic toxicity/carcinogenicity; fischer; Oral; Feed; dose end: 24 month; group: systemic; systemic / in life observation / body weight / body weight + systemic / in life observation / body weight / body weight gain + systemic / …
dog [7] = conditions: Chronic toxicity; beagle; Oral; Feed; dose end: 52 week; group: systemic; systemic / organ weight / adrenal gland / absolute + systemic / organ weight / adrenal gland / relative to body weight + systemic / …
rat [8] = conditions: Prenatal developmental toxicity study, other, Oral, Gavage/Intubation, dose end: 15 GD
mouse [9] = conditions: Combined chronic toxicity/carcinogenicity, other, Oral, [Not Specified], dose end: 99 week, group: systemic
mouse [10] = conditions: Combined chronic toxicity/carcinogenicity, other, Oral, Feed, dose end: 104 week, group: systemic
dog [11] = conditions: Chronic toxicity, beagle, Oral, Feed, dose end: 52 week, group: systemic
dog [12] = conditions: Subchronic oral toxicity in nonrodent, beagle, Feed, dose end: 13 week, group: systemic, systemic / organ weight / lung / relative to body weight + systemic / pathology gross / lung / [other] + systemic / pathology microscopic / …
rat [13] = conditions: Combined chronic toxicity/carcinogenicity, wistar, Oral, Feed, dose end: 104 week
mouse [14] = conditions: Combined chronic toxicity/carcinogenicity, b6c3f1, Oral, Feed, dose end: 5 week, group: systemic
mouse [15] = conditions: Combined chronic toxicity/carcinogenicity, b6c3f1, Oral, Feed, dose end: 104 week, group: systemic
rat [16] = conditions: Combined chronic toxicity/carcinogenicity, fischer, Oral, Feed, dose end: 13 week, group: systemic
rat [17] = conditions: Combined chronic toxicity/carcinogenicity, fischer, Oral, Feed, dose end: 119 week, group: systemic
[18] = systemic / clinical chemistry / cholesterol / cholesterol + systemic / clinical chemistry / thyroid stimulating hormone (thyrotropin) (tsh…
[19] = systemic / clinical chemistry / thyroid stimulating hormone (thyrotropin) (tsh) / thyroid stimulating hormone (=thyrotropin) (tsh) + …
[20] = group: cholinesterase, cholinesterase / cholinesterase / cholinesterase / plasma cholinesterase (che)
[21] = group: systemic, systemic / organ weight / kidney / relative to body weight + systemic / organ weight / liver / absolute + systemic / organ weight / liver / …
[22] = group: developmental, developmental / developmental malformation / bone / delayed ossification
[23] = group: maternal, systemic / in life observation / body weight / body weight gain + systemic / in life observation / food consumption / food consumption + …
[24] = group: developmental, developmental / developmental malformation / bone / delayed ossification + systemic / in life observation / body weight / fetal weight
[25] = group: maternal, systemic / in life observation / body weight / body weight gain + systemic / in life observation / clinical signs / emaciation + systemic / …
[26] = systemic / in life observation / body weight / body weight + systemic / in life observation / food consumption / food consumption + systemic…
[27] = systemic / in life observation / food consumption / food consumption + systemic / pathology microscopic / blood / [other] + systemic / …
[28] = systemic / pathology microscopic / lung / [other] + systemic / urinalysis / [other] / urine
[29] = group: cholinesterase, cholinesterase / cholinesterase / cholinesterase / erythrocyte cholinesterase (che)
[30] = group: systemic, systemic / organ weight / kidney / absolute + systemic / organ weight / ovary / absolute
[31] = group: systemic, systemic / organ weight / kidney / absolute + systemic / organ weight / ovary / absolute + systemic / organ weight / brain / relative to …
[32] = systemic / organ weight / liver / absolute + systemic / organ weight / liver / relative to body weight + systemic / pathology microscopic / …
[33] = systemic / organ weight / kidney / absolute + systemic / organ weight / liver / relative to body weight
[34] = systemic / organ weight / kidney / absolute + systemic / organ weight / liver / relative to body weight + systemic / organ weight / kidney…
[35] = systemic / organ weight / spleen / absolute + systemic / organ weight / spleen / relative to body weight
[36] = systemic / in life observation / body weight / body weight gain + systemic / organ weight / liver / relative to body weight + systemic / …

Cc1cc(NC(=O)C(=O)O)cc(C)c1Oc1ccc(O)c2c1CCC2
LEL (dog [1]; [18]): 5 mg/kg/day
NEL (dog [1]; [18]): < 5 mg/kg/day
LOAEL (dog [1]; [19]): > 100 mg/kg/day
NOAEL (dog [1]; [19]): ≥ 100 mg/kg/day
LEL (rat [2]): 1 mg/kg/day
LOAEL (rat [2]): > 1000 mg/kg/day
NEL (rat [2]): < 1 mg/kg/day
NOAEL (rat [2]): ≥ 1000 mg/kg/day

C[C@H]1[C@H](c2ccc(Cl)cc2)SC(=O)N1C(=O)NC1CCCCC1 [Hexythiazox]
LEL (mouse [3]): 267 mg/kg/day
LOAEL (mouse [3]): 267 mg/kg/day
NEL (mouse [3]): 41.6 mg/kg/day
NOAEL (mouse [3]): 41.6 mg/kg/day
LEL (rat [4]; [20]): 50 mg/kg/day
LOAEL (rat [4]; [20]): > 350 mg/kg/day
NEL (rat [4]; [20]): 7 mg/kg/day
NOAEL (rat [4]; [20]): ≥ 350 mg/kg/day
LEL (rat [4]; [21]): 50 mg/kg/day
LOAEL (rat [4]; [21]): 50 mg/kg/day
NEL (rat [4]; [21]): 7 mg/kg/day
NOAEL (rat [4]; [21]): 7 mg/kg/day
LEL (rat [5]; [22]): 720 mg/kg/day
LOAEL (rat [5]; [22]): > 2160 mg/kg/day
NEL (rat [5]; [22]): 240 mg/kg/day
NOAEL (rat [5]; [22]): ≥ 2160 mg/kg/day
LOAEL (rat [5]; group: maternal, systemic / in life observation / body weight / body weight gain + systemic / in life observation / food consumption / food consumption): 720 mg/kg/day
LEL (rat [5]; [23]): 720 mg/kg/day
NEL (rat [5]; [23]): 240 mg/kg/day
NOAEL (rat [5]; [23]): 240 mg/kg/day
LEL (rat [6]): 163 mg/kg/day
LOAEL (rat [6]): 163 mg/kg/day
NEL (rat [6]): 23 mg/kg/day
NOAEL (rat [6]): 23 mg/kg/day
LEL (dog [7]): 13.1 mg/kg/day
LOAEL (dog [7]): 13.1 mg/kg/day
NEL (dog [7]): 2.87 mg/kg/day
NOAEL (dog [7]): 2.87 mg/kg/day

C[n+]1ccc(-c2cc[n+](C)cc2)cc1.[Cl-].[Cl-] [Paraquat dichloride]
LOAEL (rat [8]; [22]): 5 mg/kg/day
LEL (rat [8]; [24]): 5 mg/kg/day
NEL (rat [8]; [24]): 1 mg/kg/day
NOAEL (rat [8]; [24]): 1 mg/kg/day
LEL (rat [8]; [25]): 5 mg/kg/day
LOAEL (rat [8]; [25]): 5 mg/kg/day
NEL (rat [8]; [25]): 1 mg/kg/day
NOAEL (rat [8]; [25]): 1 mg/kg/day
LOAEL (mouse [9]; [26]): 5.62 mg/kg/day
NOAEL (mouse [9]; [26]): 1.88 mg/kg/day
LEL (mouse [9]; [27]): 1.88 mg/kg/day
NEL (mouse [9]; [27]): < 1.88 mg/kg/day
NOAEL (mouse [10]; systemic / hematology / leukocyte (wbc) count differential / leukocyte (wbc)): 3.82 mg/kg/day
LOAEL (mouse [10]; systemic / hematology / leukocyte (wbc) count differential / leukocyte (wbc) + systemic / hematology / erythrocyte (rbc) count differential…): 13 mg/kg/day
LEL (mouse [10]; systemic / pathology microscopic / mammary gland / [other]): 3.82 mg/kg/day
NEL (mouse [10]; systemic / pathology microscopic / mammary gland / [other] + systemic / clinical chemistry / glucose / glucose + systemic / clinical …): 1.32 mg/kg/day
LEL (dog [11]; [28]): 0.45 mg/kg/day
NEL (dog [11]; [28]): < 0.45 mg/kg/day
LOAEL (dog [11]; systemic / pathology microscopic / lung / inflammation): 0.93 mg/kg/day
NOAEL (dog [11]; systemic / pathology microscopic / lung / inflammation + systemic / pathology microscopic / ear / squamous cell papilloma + systemic / in …): 0.45 mg/kg/day
LEL (dog [12]): 1.5 mg/kg/day
LOAEL (dog [12]): 1.5 mg/kg/day
NEL (dog [12]): 0.5 mg/kg/day
NOAEL (dog [12]): 0.5 mg/kg/day
LEL (rat [13]; [29]): 15 mg/kg/day
LOAEL (rat [13]; [29]): 15 mg/kg/day
NEL (rat [13]; [29]): 5 mg/kg/day
NOAEL (rat [13]; [29]): 5 mg/kg/day
NEL (rat [13]; [30]): 5 mg/kg/day
NOAEL (rat [13]; [30]): 5 mg/kg/day
LEL (rat [13]; [31]): 15 mg/kg/day
LOAEL (rat [13]; [31]): 15 mg/kg/day

CC(C)=CC1C(C(=O)OCc2cccc(Oc3ccccc3)c2)C1(C)C (centres undefined) [Phenothrin]
LOAEL (mouse [14]; [32]): 565 mg/kg/day
NEL (mouse [14]; [32]): 57 mg/kg/day
NOAEL (mouse [14]; [32]): 190 mg/kg/day
LEL (mouse [14]; systemic / pathology microscopic / liver / necrosis): 190 mg/kg/day
LEL (mouse [15]; [33]): 45 mg/kg/day
NEL (mouse [15]; [33]): < 45 mg/kg/day
LOAEL (mouse [15]; [34]): 150 mg/kg/day
NOAEL (mouse [15]; [34]): 45 mg/kg/day
LOAEL (rat [16]; systemic / clinical chemistry / cholesterol / cholesterol + systemic / clinical chemistry / lactic acid dehydrogenase (ldh) / lactic acid …): 216 mg/kg/day
LEL (rat [16]; [35]): 21 mg/kg/day
NEL (rat [16]; [35]): < 21 mg/kg/day
NOAEL (rat [16]; systemic / organ weight / spleen / absolute + systemic / organ weight / spleen / relative to body weight + systemic / clinical chemistry / …): 70 mg/kg/day
NOAEL (rat [17]; systemic / in life observation / body weight / body weight gain): 50 mg/kg/day
LEL (rat [17]; [36]): 150 mg/kg/day
LOAEL (rat [17]; [36]): 150 mg/kg/day
NEL (rat [17]; systemic / organ weight / liver / relative to body weight): 50 mg/kg/day
